From article PMC9607266, “Drug–Drug Interaction Study to Evaluate the Pharmacokinetics, Safety, and Tolerability of Ipatasertib in Combination with Darolutamide in Patients with Advanced Prostate Cancer” (Pharmaceutics, 2022)
Read-outs that look alike come from different tables or passages of the source.

What was measured:
[1] = Phase Ib DDI study: plasma PK of darolutamide and keto-darolutamide at steady state in combination with ipatasertib; conditions: human
Procedure: This was an open-label, multicenter, Phase Ib study designed to assess the safety, tolerability, and the drug–drug interaction of the combined administration of 400 mg QD oral ipatasertib and 600 mg BID oral darolutamide. […] For this study, no prospective calculations of the statistical power were made; the sample size selected was based on a typical sample size used for DDI studies. […] Figure 1 presents an overview of the study design.
Plasma concentrations of ipatasertib and its metabolite M1 were determined using a previously reported, validated liquid chromatography–tandem mass spectrometry assay (LC-MS/MS). The lower and upper limit of the quantitation for ipatasertib and M1 was 0.500 ng/mL and 400 ng/mL, respectively. Stable labeled internal standards were used for both analytes. Plasma concentrations of darolutamide and keto-darolutamide were determined by a validated bioanalytical assay using supported liquid extraction and LC-MS/MS detection by Labcorp Early Drug Development Laboratories Inc. (Madison, WI, USA). […] The diastereomers of darolutamide, (S, R)-darolutamide, and (S, S)-darolutamide, were quantified as one entity from a single chromatographic peak. The MS/MS transitions monitored for detection were m/z 399.2 to 178.1 for darolutamide, m/z 397.1 to 136.0 for keto-darolutamide, and 478.2 to 221.0 for the internal standard apalutamide. […]

[2] = cited from earlier work
[3] = compared with enzalutamide and apalutamide; cited from earlier work
CYP3A4 [4] = conditions: cited from earlier work
[5] = cited from earlier work; remark: listed apart in the source
[6] = Phase Ib DDI study: plasma PK of ipatasertib and M1 after ipatasertib 400 mg QD alone and with darolutamide 600 mg BID; assay type: in vivo; conditions: male, human, oral
Procedure: (§1) Figure 1 presents an overview of the study design.
Stable labeled internal standards were used for both analytes.
Only median, min, and max were evaluated for Tmax.
Pharmacokinetic parameters (area under the curve (AUC0–tau) and Cmax,ss) were compared between Day 10 of Cycle 1 (ipatasertib alone, as the reference treatment) and Day 28 of Cycle 1 (combination of ipatasertib and darolutamide, as the test treatment) using SAS Version 9.4 by calculating geometric mean ratios and corresponding 90% confidence intervals (CIs) to evaluate the effect of darolutamide on the PK of ipatasertib and M1. A linear mixed model with a fixed effect for treatment and a random effect for patients was used on the natural log-transformed pharmacokinetic parameters. Point estimates for the means and point estimates and corresponding 90% confidence intervals (CIs) for the differences in means between the two treatments (reference and test treatments) were obtained from the linear mixed effects model and then exponentiated to obtain geometric means, geometric mean ratios, and respective 90% CIs on the original scale.

[7] = Phase Ib DDI study: safety and tolerability (adverse events, ECG); assay type: in vivo, human
Description: as §1
The primary objectives of the study were to characterize the effect of darolutamide on the PK of ipatasertib and its M1 (G-037720) metabolite when administered alone versus in combination with darolutamide and to evaluate the safety and tolerability of the ipatasertib–darolutamide combination. The PK endpoints of the study were to evaluate the plasma PK parameters of ipatasertib and its M1 metabolite and evaluate the PK of darolutamide and its metabolite keto-darolutamide at a steady state of the combination treatment and compare this to historical data. Medications known to impact the PK of ipatasertib or darolutamide (both CY3PA4 substrates) were refrained from being administered during the study conducted and accordingly not co-administered. The safety endpoints of the study were to evaluate the incidences, nature, and severity of AEs and laboratory abnormalities, changes in vital signs, exposure to the study treatment, and to evaluate the changes in ECG parameters with particular focus on the QT interval corrected through the use of Fridericia’s formula (QTcF). The study achieved the first patient first visit on 21 December 2020, and the cut-off date for primary PK and safety analysis presented within this manuscript was 31 August 2021.
The safety and tolerability assessments consisted of monitoring and recording AEs, including SAEs and AEs of special interest, clinical laboratory assessments, vital signs, a 12 lead ECG, and physical examination. The AEs were recorded from the first admission until the discontinuation of visits. The AE severity was graded from Grade 1 to Grade 5 as per the National Cancer Institute Common Terminology Criteria for Adverse Events version 5.0. The relationship between the AEs and the study drug was indicated as related or not related. The AE terms reported were coded using the standard Medical Dictionary for Regulatory Activities version 24.0’s preferred terms. In order to manage any drug-related toxicities, ipatasertib and darolutamide modifications were specified as follows: An ipatasertib dose could be reduced in decrements of 100 mg up to 200 mg (can be reduced to two dose levels) beyond which the patient must discontinue ipatasertib but may continue treatment with darolutamide. In the case of darolutamide, the dose could be reduced from 600 mg BID to 300 mg BID until symptoms improve. Treatment may then be resumed at a dose of 600 mg, twice daily. A dose reduction below 300 mg BID for darolutamide was not recommended.

[8] = cited from earlier work; remark: listed apart in the source
CYP3A4 [9] = tested on: CYP3A4; set-up: method as in PMID 35428895; conditions: PBPK simulations, ipatasertib 400 mg QD; cited from earlier work
[10] = set-up: method as in PMID 27872130; conditions: cited from earlier work
CYP3A4 [11] = conditions: in vitro studies; cited from earlier work
[12] = single-agent darolutamide from the literature, geometric mean (%CV)
[13] = itraconazole, strong CYP3A4 and P-gp inhibitor, 100 mg ipatasertib

CC(O)c1cc(C(=O)N[C@@H](C)Cn2ccc(-c3ccc(C#N)c(Cl)c3)n2)[nH]n1 (stereo partly drawn) [Darolutamide]
Tmax ([1]; male, plasma, oral): 4.23 h | increase in AUC0–∞ when combined with itraconazole ([2]; darolutamide with itraconazole): 1.7 fold | increase in Cmax when combined with itraconazole ([2]; darolutamide with itraconazole): 1.4 fold | penetration of the blood–brain barrier [3]: lower penetration of the blood–brain barrier | reduction of midazolam exposures (CYP3A4 [4]; concomitant administration of darolutamide and midazolam): ~ 29% | time to steady state ([5]; 600 mg BID): 2 to 5 days | increase in bioavailability when administered with food [5]: 2.0- to 2.5 fold | effective t1/2 ([5]; in patients): approximately 20 h | time at which Cmax is reached ([5]; single 600 mg oral dose): approximately 4 h | AUC0–t,ss [5, 12]: 52.82 (33.9) h·µg/mL | Cmax,ss [5, 12]: 4.79 (30.9) µg/mL | AUC0–12 h,ss ([5]; single-agent darolutamide): 52820 ng·h/mL

CNC(=O)c1ccc(N2C(=S)N(c3ccc(C#N)c(C(F)(F)F)c3)C(=O)C2(C)C)cc1F [enzalutamide]
reduction of midazolam exposures (CYP3A4 [4]; midazolam in combination with enzalutamide, strong CYP3A4 inducer): approximately 85%

CC(C)NC[C@@H](C(=O)N1CCN(c2ncnc3c2[C@H](C)C[C@H]3O)CC1)c1ccc(Cl)cc1 [Ipatasertib]
AUC ([6]; 400 mg, Reference = ipatasertib only, n = 13, linear mixed model, read-out: AUC0–tau,ss, Reference Geometric Mean): 2610 ng·h/mL | Cmax ([6]; 400 mg, Reference = ipatasertib only, n = 13, linear mixed model, read-out: Cmax,ss, Reference Geometric Mean): 452 ng/mL | Cmax ([6]; 400 mg, ipatasertib 400 mg QD alone, Cycle 1 Day 10, n = 14, geometric mean (%CV), read-out: Cmax,ss): 462 ng/mL | AUC ([6]; 400 mg, ipatasertib 400 mg QD alone, Cycle 1 Day 10, n = 14, geometric mean (%CV), tau = 24 h, mCRPC patients, read-out: AUC0–tau,ss): 2660 ng·h/mL | AUC ([6]; Test = ipatasertib with darolutamide, n = 13, linear mixed model, read-out: AUC0–tau,ss, Test Geometric Mean): 2400 ng·h/mL | Cmax ([6]; Test = ipatasertib with darolutamide, n = 13, linear mixed model, read-out: Cmax,ss, Test Geometric Mean): 355 ng/mL | AUC(0-t) ([6]; ipatasertib 400 mg QD alone, Cycle 1 Day 10, n = 14, geometric mean (%CV)): 2670 ng·h/mL | Tmax ([6]; ipatasertib 400 mg QD alone, Cycle 1 Day 10, n = 14, median (min, max)): 1.04 h | AUC(0-t) ([6]; ipatasertib 400 mg QD with darolutamide 600 mg BID, Cycle 1 Day 28, n = 13, geometric mean (%CV)): 2400 ng·h/mL | Cmax ([6]; ipatasertib 400 mg QD with darolutamide 600 mg BID, Cycle 1 Day 28, n = 13, geometric mean (%CV), read-out: Cmax,ss): 355 ng/mL | AUC ([6]; ipatasertib 400 mg QD with darolutamide 600 mg BID, Cycle 1 Day 28, n = 13, geometric mean (%CV), tau = 24 h, read-out: AUC0–tau,ss): 2400 ng·h/mL | Tmax ([6]; ipatasertib 400 mg QD with darolutamide 600 mg BID, Cycle 1 Day 28, n = 13, median (min, max)): 2 h | Total number of deaths ([7]; N = 14): 0 | patients with at least one AE leading to discontinuation of darolutamide ([7]; male, human, in vivo): 0 n (%) | patients with at least one AE leading to discontinuation of ipatasertib ([7]; male, human, in vivo): 0 n (%) | patients with at least one AE leading to dose interruption of darolutamide ([7]; male, human, in vivo): 0 n (%) | patients with at least one AE leading to dose interruption of ipatasertib ([7]; male, human, in vivo): 0 n (%) | patients with at least one AE leading to dose reduction of darolutamide ([7]; male, human, in vivo): 0 n (%) | patients with at least one AE leading to dose reduction of ipatasertib ([7]; male, human, in vivo): 0 n (%) | patients with at least one AE related to any treatment ([7]; male, human, in vivo): 1 (7.1) n (%) | patients with at least one AE related to darolutamide only ([7]; male, human, in vivo): 0 n (%) | patients with at least one AE related to ipatasertib only ([7]; male, human, in vivo): 1 (7.1) n (%) | patients with at least one Grade 5 AE ([7]; male, human, in vivo): 0 n (%) | patients with at least one Grade ≥ 3 AE ([7]; male, human, in vivo): 0 n (%) | patients with at least one Serious AE ([7]; male, human, in vivo): 0 n (%) | patients with at least one: Any treatment discontinuation ([7]; male, human, in vivo): 0 n (%) | patients with diarrhea of Grade 1 ([7]; male, human, in vivo): 7.1% | time to steady-state ([8]; 400 mg QD dose): ≤ 7 days | median time to maximum concentration (Tmax) ([8]; across 25–800 mg doses in patients with cancer): 0.5 to 3 h | exposures following a high-fat meal versus fasted conditions [8]: comparable | median half-life (t1/2) ([8]; oral doses in the range of 200–800 mg, range 27.8–66.9 h): 45.0 h | increase in exposures when combined with abiraterone ([2]; dedicated drug–drug interaction study): approximately 1.5 fold | decrease in ipatasertib exposure when combined with enzalutamide ([2]; enzalutamide, strong CYP3A4 inducer): approximately 50% | increase in AUC0–∞ when combined with itraconazole [2, 13]: 5.45 fold | increase in Cmax when combined with itraconazole [2, 13]: 2.26 fold | expected increase in midazolam exposure (AUC0–∞) (CYP3A4 [9]): approximately 1.69 fold | human plasma protein binding [10]: low | CYP3A4 inhibition in vitro (CYP3A4 [11]): time-dependent inhibitor of CYP3A4 | increase in midazolam AUC0–∞ exposures (CYP3A4 [4]; ipatasertib at 600 mg QD): 2.22 fold

CC(=O)c1cc(C(=O)N[C@@H](C)Cn2ccc(-c3ccc(C#N)c(Cl)c3)n2)[nH]n1 [Keto-darolutamide, keto-darolutamide]
Tmax,ss ([1]; in vivo): 4.13 (1.00, 8.25) h | AUC0–12 h,ss ([5]; human, in vivo): 82800 ng·h/mL | AUC0–t,ss ([5]; human, in vivo): 82.8 (39.5) h·µg/mL | Cmax,ss ([5]; human, in vivo): 9.4 (35.4) µg/mL | effective t1/2 ([5]; human, in vivo): approximately 20 h
